Laboratory results taken from the kinase profiling compilation of Christmann-Franck et al. (2016).

Columns and labels:
Experiment in all cases: KINOMEscan competition binding
Conditions in all cases: compound 10.0 µM
FGR (human) = FGR (human) (UniProt P09769)
MAP2K6 (human) = MAP2K6 (human) (UniProt P52564)
[1] = system: KIT (human), P10721 [V559D]
DMPK (human) = DMPK (human) (UniProt Q09013)
MAP4K3 (human) = MAP4K3 (human) (UniProt Q8IVH8)
RPS6KA4 KD2 (human) = RPS6KA4 KD2 (human) (UniProt O75676)
AURKB (human) = AURKB (human) (UniProt Q96GD4)
EPHB1 (human) = EPHB1 (human) (UniProt P54762)
SGK110 (human) = SGK110 (human) (UniProt P0C264)
CSNK2A1 (human) = CSNK2A1 (human) (UniProt P68400)
STK33 (human) = STK33 (human) (UniProt Q9BYT3)
NEK6 (human) = NEK6 (human) (UniProt Q9HC98)
ACVR2A (human) = ACVR2A (human) (UniProt P27037)
CDK8 (human) = CDK8 (human) (UniProt P49336)
ULK2 (human) = ULK2 (human) (UniProt Q8IYT8)
NTRK2 (human) = NTRK2 (human) (UniProt Q16620)
CSNK1G2 (human) = CSNK1G2 (human) (UniProt P78368)
CDK16 (human) = CDK16 (human) (UniProt Q00536)
RIPK2 (human) = RIPK2 (human) (UniProt O43353)
[2] = system: EIF2AK4 KD2 (human), Q9P2K8 [S808G]
FLT1 (human) = FLT1 (human) (UniProt P17948)
PRKCD (human) = PRKCD (human) (UniProt Q05655)
WEE2 (human) = WEE2 (human) (UniProt P0C1S8)
KDR (human) = KDR (human) (UniProt P35968)
RIOK2 (human) = RIOK2 (human) (UniProt Q9BVS4)
NEK9 (human) = NEK9 (human) (UniProt Q8TD19)
STK17A (human) = STK17A (human) (UniProt Q9UEE5)
PRKAA2 (human) = PRKAA2 (human) (UniProt P54646)
MAP2K1 (human) = MAP2K1 (human) (UniProt Q02750)
CAMK1G (human) = CAMK1G (human) (UniProt Q96NX5)
MAP2K2 (human) = MAP2K2 (human) (UniProt P36507)
PIP4K2B (human) = PIP4K2B (human) (UniProt P78356)
IRAK3 (human) = IRAK3 (human) (UniProt Q9Y616)
CDK19 (human) = CDK19 (human) (UniProt Q9BWU1)
TTK (human) = TTK (human) (UniProt P33981)
PDGFRA (human) = PDGFRA (human) (UniProt P16234)
RPS6KA1 KD1 (human) = RPS6KA1 KD1 (human) (UniProt Q15418)
EIF2AK2 (human) = EIF2AK2 (human) (UniProt P19525)
PAK1 (human) = PAK1 (human) (UniProt Q13153)
RPS6KA1 KD2 (human) = RPS6KA1 KD2 (human) (UniProt Q15418)

Chain of PRKCD (human) (Q05655 whole entry, looked up): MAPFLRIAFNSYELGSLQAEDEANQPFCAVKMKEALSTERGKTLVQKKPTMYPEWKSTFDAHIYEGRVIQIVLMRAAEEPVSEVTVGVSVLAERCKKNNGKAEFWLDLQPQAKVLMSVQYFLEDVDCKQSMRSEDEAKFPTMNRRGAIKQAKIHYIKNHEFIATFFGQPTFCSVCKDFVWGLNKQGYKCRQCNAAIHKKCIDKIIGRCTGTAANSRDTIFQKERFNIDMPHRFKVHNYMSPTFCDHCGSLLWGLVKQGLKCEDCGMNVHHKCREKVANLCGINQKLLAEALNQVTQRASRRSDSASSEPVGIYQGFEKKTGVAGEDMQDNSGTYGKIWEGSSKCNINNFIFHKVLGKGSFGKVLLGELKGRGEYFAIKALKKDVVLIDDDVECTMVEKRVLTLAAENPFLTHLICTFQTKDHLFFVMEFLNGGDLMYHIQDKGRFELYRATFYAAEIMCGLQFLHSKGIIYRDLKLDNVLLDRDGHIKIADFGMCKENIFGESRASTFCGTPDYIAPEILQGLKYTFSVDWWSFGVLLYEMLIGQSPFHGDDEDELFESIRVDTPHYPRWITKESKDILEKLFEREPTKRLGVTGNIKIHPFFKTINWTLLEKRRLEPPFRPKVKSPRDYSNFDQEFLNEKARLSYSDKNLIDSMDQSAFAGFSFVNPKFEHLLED
Chain of CSNK1G2 (human) (P78368 whole entry, looked up): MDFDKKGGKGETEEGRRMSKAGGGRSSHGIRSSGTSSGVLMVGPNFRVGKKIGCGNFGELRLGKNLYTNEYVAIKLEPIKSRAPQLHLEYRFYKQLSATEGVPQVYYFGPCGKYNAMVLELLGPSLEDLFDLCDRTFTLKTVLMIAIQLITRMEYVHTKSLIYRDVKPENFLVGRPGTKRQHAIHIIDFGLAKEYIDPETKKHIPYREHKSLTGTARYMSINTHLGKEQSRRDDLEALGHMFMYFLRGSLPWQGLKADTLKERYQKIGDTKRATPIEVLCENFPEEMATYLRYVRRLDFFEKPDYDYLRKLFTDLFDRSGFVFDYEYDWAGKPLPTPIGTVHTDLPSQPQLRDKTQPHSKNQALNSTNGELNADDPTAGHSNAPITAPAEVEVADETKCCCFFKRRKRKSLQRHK
Chain of PAK1 (human) (Q13153 whole entry, looked up): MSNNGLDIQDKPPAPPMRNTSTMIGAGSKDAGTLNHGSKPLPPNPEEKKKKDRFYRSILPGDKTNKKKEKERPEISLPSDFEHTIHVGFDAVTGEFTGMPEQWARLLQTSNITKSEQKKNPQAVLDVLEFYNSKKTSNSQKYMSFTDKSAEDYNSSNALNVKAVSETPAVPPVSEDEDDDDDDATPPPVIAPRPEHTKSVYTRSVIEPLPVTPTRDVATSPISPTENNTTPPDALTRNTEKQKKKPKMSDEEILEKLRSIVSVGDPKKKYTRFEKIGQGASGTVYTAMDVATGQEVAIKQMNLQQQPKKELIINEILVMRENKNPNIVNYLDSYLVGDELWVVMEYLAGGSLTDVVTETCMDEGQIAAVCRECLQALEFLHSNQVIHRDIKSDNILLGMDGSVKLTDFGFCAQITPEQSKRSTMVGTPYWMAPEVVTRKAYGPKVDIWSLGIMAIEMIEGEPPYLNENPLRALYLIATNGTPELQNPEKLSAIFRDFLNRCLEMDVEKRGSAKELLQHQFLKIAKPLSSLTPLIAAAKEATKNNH
Chain of MAP2K1 (human) (Q02750 whole entry, looked up): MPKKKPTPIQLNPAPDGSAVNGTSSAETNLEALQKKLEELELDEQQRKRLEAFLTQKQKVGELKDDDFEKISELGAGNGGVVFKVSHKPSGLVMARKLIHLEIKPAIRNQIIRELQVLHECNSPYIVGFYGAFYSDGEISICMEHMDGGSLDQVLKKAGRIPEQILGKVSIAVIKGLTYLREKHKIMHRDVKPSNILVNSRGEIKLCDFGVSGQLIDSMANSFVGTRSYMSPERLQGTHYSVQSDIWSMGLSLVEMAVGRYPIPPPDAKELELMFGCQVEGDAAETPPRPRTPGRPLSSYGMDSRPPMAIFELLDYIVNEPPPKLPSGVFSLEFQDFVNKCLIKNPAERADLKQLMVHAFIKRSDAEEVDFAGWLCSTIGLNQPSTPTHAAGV
Chain of AURKB (human) (Q96GD4 whole entry, looked up): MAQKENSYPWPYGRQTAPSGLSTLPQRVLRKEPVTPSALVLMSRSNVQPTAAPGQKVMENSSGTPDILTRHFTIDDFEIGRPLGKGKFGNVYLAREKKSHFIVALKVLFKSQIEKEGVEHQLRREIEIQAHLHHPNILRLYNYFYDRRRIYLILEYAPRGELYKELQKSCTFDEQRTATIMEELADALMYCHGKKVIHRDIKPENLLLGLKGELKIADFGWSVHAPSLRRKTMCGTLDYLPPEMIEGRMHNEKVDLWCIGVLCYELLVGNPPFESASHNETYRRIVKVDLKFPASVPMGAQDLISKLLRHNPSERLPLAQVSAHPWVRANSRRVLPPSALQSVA
Chain of CDK8 (human) (P49336 whole entry, looked up): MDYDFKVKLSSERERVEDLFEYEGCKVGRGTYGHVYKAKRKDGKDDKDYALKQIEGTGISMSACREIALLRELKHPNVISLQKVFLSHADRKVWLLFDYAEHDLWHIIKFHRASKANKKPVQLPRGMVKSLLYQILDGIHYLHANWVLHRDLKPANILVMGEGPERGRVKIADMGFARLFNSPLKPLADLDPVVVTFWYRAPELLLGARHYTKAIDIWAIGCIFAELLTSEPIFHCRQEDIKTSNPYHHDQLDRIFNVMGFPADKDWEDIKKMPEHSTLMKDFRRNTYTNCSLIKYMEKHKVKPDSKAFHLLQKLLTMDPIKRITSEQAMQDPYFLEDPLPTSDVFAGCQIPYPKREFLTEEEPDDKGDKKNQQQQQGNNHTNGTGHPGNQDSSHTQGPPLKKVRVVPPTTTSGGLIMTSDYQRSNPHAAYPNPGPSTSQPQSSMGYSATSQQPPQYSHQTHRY
Chain of MAP2K6 (human) (P52564 whole entry, looked up): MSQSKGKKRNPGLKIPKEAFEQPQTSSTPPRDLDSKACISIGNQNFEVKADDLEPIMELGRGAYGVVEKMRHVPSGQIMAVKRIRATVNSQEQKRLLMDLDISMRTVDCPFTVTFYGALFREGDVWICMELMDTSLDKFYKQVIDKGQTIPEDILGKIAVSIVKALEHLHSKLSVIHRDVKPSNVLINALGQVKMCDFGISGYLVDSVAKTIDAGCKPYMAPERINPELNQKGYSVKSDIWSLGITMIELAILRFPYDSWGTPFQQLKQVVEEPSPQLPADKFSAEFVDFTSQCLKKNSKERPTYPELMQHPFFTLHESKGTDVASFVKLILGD
Chain of RPS6KA4 KD2 (human) (O75676 whole entry, looked up): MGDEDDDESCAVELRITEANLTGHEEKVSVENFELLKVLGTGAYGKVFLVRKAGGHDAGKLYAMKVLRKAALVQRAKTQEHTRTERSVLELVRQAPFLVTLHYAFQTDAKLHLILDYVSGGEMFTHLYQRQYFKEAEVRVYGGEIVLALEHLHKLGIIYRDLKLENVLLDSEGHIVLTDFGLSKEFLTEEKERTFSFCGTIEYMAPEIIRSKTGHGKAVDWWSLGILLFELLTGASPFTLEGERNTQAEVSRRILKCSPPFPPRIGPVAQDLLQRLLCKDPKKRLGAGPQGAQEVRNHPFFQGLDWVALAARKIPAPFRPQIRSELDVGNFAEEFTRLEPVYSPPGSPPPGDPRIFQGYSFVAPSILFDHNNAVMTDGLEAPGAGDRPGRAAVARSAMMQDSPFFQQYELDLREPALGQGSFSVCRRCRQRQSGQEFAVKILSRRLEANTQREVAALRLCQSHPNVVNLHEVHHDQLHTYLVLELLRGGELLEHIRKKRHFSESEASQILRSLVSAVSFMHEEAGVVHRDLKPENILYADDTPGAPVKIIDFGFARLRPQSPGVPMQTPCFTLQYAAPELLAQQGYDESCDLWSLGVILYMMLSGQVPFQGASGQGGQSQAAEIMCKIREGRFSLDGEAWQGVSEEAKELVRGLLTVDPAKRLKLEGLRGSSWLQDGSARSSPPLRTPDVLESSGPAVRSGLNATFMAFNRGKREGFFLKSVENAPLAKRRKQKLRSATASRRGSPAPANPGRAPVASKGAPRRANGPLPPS
Chain of PRKAA2 (human) (P54646 whole entry, looked up): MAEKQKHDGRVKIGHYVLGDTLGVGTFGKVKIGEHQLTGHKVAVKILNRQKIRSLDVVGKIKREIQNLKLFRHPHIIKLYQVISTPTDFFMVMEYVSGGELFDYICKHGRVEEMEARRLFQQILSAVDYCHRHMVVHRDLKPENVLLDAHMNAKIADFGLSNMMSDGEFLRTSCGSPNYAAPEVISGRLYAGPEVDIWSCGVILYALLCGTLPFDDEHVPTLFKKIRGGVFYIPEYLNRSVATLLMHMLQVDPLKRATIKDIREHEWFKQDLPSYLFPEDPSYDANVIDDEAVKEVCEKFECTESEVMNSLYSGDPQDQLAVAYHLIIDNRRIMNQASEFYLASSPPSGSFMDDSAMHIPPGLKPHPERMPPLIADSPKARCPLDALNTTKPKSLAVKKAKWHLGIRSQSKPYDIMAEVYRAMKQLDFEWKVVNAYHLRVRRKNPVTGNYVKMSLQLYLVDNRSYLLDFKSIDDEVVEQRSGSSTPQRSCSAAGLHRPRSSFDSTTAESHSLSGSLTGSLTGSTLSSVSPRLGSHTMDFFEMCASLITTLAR
Chain of PIP4K2B (human) (P78356 whole entry, looked up): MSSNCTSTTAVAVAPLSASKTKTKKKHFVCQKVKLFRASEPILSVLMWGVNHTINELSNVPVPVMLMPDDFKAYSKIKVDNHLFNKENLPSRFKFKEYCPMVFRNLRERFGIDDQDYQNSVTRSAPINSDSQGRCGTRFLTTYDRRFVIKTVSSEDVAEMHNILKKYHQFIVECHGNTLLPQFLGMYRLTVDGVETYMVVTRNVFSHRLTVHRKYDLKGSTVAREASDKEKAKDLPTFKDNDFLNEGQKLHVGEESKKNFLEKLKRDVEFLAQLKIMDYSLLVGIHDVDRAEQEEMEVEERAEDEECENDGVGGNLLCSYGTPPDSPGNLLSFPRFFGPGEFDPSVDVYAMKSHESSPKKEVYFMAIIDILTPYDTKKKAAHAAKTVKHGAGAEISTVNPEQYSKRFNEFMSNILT

Structure (SMILES) | kinase still bound, per cent of control (FGR (human)) [%] | kinase still bound, per cent of control (MAP2K6 (human)) [%] | kinase still bound, per cent of control [1] [%] | kinase still bound, per cent of control (DMPK (human)) [%] | kinase still bound, per cent of control (MAP4K3 (human)) [%] | kinase still bound, per cent of control (RPS6KA4 KD2 (human)) [%] | kinase still bound, per cent of control (AURKB (human)) [%] | kinase still bound, per cent of control (EPHB1 (human)) [%] | kinase still bound, per cent of control (SGK110 (human)) [%] | kinase still bound, per cent of control (CSNK2A1 (human)) [%] | kinase still bound, per cent of control (STK33 (human)) [%] | kinase still bound, per cent of control (NEK6 (human)) [%] | kinase still bound, per cent of control (ACVR2A (human)) [%] | kinase still bound, per cent of control (CDK8 (human)) [%] | kinase still bound, per cent of control (ULK2 (human)) [%] | kinase still bound, per cent of control (NTRK2 (human)) [%] | kinase still bound, per cent of control (CSNK1G2 (human)) [%] | kinase still bound, per cent of control (CDK16 (human)) [%] | kinase still bound, per cent of control (RIPK2 (human)) [%] | kinase still bound, per cent of control [2] [%] | other results
CN(C)C/C=C/C(=O)Nc1cccc(Nc2ncc3c(n2)N(C)c2ccccc2C(=O)N3C)c1 | 4.2 | 95 | 54 | 32 | 28 | 70 | 0.1 | 90 | 0.25 | 100 | 8.9 | 73 | 57 | 100 | 0.2 | 4 | 69 | 95 | 18 | 62 | kinase still bound, per cent of control (FLT1 (human)): 83%; kinase still bound, per cent of control (PRKCD (human)): 100%; kinase still bound, per cent of control (WEE2 (human)): 97%; kinase still bound, per cent of control (KDR (human)): 90%; kinase still bound, per cent of control (RIOK2 (human)): 79%; kinase still bound, per cent of control (NEK9 (human)): 93%; kinase still bound, per cent of control (STK17A (human)): 97%; kinase still bound, per cent of control (PRKAA2 (human)): 1.4%; kinase still bound, per cent of control (MAP2K1 (human)): 82%; kinase still bound, per cent of control (CAMK1G (human)): 52%; kinase still bound, per cent of control (MAP2K2 (human)): 78%; kinase still bound, per cent of control (PIP4K2B (human)): 36%; kinase still bound, per cent of control (IRAK3 (human)): 44%; kinase still bound, per cent of control (CDK19 (human)): 100%; kinase still bound, per cent of control (TTK (human)): 28%; kinase still bound, per cent of control (PDGFRA (human)): 100%; kinase still bound, per cent of control (RPS6KA1 KD1 (human)): 67%; kinase still bound, per cent of control (EIF2AK2 (human)): 75%; kinase still bound, per cent of control (PAK1 (human)): 91%; kinase still bound, per cent of control (RPS6KA1 KD2 (human)): 39%
N#Cc1c(NC(=O)c2cccc3ccccc23)sc2c1CCCC2 | 100 | 100 | 60 | 83 | 79 | 100 | 94 | 91 | 91 | 89 | 86 | 92 | 69 | 100 | 98 | 100 | 57 | 100 | 58 | 82 | kinase still bound, per cent of control (FLT1 (human)): 87%; kinase still bound, per cent of control (PRKCD (human)): 100%; kinase still bound, per cent of control (WEE2 (human)): 70%; kinase still bound, per cent of control (KDR (human)): 96%; kinase still bound, per cent of control (RIOK2 (human)): 91%; kinase still bound, per cent of control (NEK9 (human)): 70%; kinase still bound, per cent of control (STK17A (human)): 100%; kinase still bound, per cent of control (PRKAA2 (human)): 84%; kinase still bound, per cent of control (MAP2K1 (human)): 98%; kinase still bound, per cent of control (CAMK1G (human)): 90%; kinase still bound, per cent of control (MAP2K2 (human)): 100%; kinase still bound, per cent of control (PIP4K2B (human)): 100%; kinase still bound, per cent of control (IRAK3 (human)): 100%; kinase still bound, per cent of control (CDK19 (human)): 88%; kinase still bound, per cent of control (TTK (human)): 91%; kinase still bound, per cent of control (PDGFRA (human)): 89%; kinase still bound, per cent of control (RPS6KA1 KD1 (human)): 100%; kinase still bound, per cent of control (EIF2AK2 (human)): 100%; kinase still bound, per cent of control (PAK1 (human)): 100%; kinase still bound, per cent of control (RPS6KA1 KD2 (human)): 78%
O=C(NC1CC1)c1cccc(-c2ccc3c(NC(=O)C4CC4)n[nH]c3c2)c1 | 100 | 55 | 4.8 | 100 | 60 | 100 | 30 | 100 | 100 | 62 | 100 | 90 | 92 | 76 | 77 | 61 | 94 | 5 | 72 | 96 | kinase still bound, per cent of control (FLT1 (human)): 100%; kinase still bound, per cent of control (PRKCD (human)): 100%; kinase still bound, per cent of control (WEE2 (human)): 100%; kinase still bound, per cent of control (KDR (human)): 93%; kinase still bound, per cent of control (RIOK2 (human)): 78%; kinase still bound, per cent of control (NEK9 (human)): 100%; kinase still bound, per cent of control (STK17A (human)): 96%; kinase still bound, per cent of control (PRKAA2 (human)): 45%; kinase still bound, per cent of control (MAP2K1 (human)): 100%; kinase still bound, per cent of control (CAMK1G (human)): 75%; kinase still bound, per cent of control (MAP2K2 (human)): 82%; kinase still bound, per cent of control (PIP4K2B (human)): 5.6%; kinase still bound, per cent of control (IRAK3 (human)): 69%; kinase still bound, per cent of control (CDK19 (human)): 79%; kinase still bound, per cent of control (TTK (human)): 42%; kinase still bound, per cent of control (PDGFRA (human)): 29%; kinase still bound, per cent of control (RPS6KA1 KD1 (human)): 81%; kinase still bound, per cent of control (EIF2AK2 (human)): 85%; kinase still bound, per cent of control (PAK1 (human)): 70%; kinase still bound, per cent of control (RPS6KA1 KD2 (human)): 68%
